Measured values: patent US8729095B2, “3-(biaryloxy)propionic acid derivatives for prevention and/or treatment of thromboembolic diseases” (Daiichi Sankyo Company, Limited, priority 2009, dated 2014)

Columns and labels:
[1] = system: platelet aggregation induced by ADP in human platelet-rich plasma (PRP); assay: Human platelet aggregation inhibitory activity (ADP-induced, platelet-rich plasma); format: cell-based; conditions: 8 min, ADP final concentration 20 μM, maximum aggregation rate, measured for 8 minutes
Outline: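 Human platelet-rich plasma from citrated venous blood of a healthy donor was preincubated 2 min at 37 °C with compound in DMSO. Aggregation was induced with ADP (20 μM final) and followed 8 min by light transmittance, with platelet-poor plasma as 100%. IC50s derived from maximum aggregation rates.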

[2] = system: platelet aggregation induced by ADP in rat platelet-rich plasma (PRP); assay: Platelet aggregation inhibitory activity during oral administration in a rat (ex vivo, ADP-induced); conditions: male Wistar rats, 1 mg/10 ml/kg orally, blood collected 4 hours after administration, ADP final concentration 3 μM, vs. control PRP (solvent only), read-out: Inhibition Rates (%)
Description: 1 mg/10 ml/kg of the test compound was orally administered by gavage to male rats (Slc: Wistar, age 8 to 9 weeks) that had been fasted overnight. 4 hours after administration, a syringe containing 1/10 volume of a 3.13% sodium citrate solution was used to collect blood from the abdominal aorta of a rat under anesthesia. From the collected blood, platelet-rich plasma (PRP) and platelet-poor plasma (PPP) were prepared according to the method described in the method for measuring human platelet aggregation inhibitory activity. PRP was left at rest at 16° C. for 30 minutes, and subsequently used for measurement.
200 μL of the separately collected PRP was dispensed into a cuvette for the aggregation test, followed by incubation at 37° C. for 2 minutes, and subsequently 2 μL of 0.3 mM ADP was added (final concentration 3 μM) to induce platelet aggregation.
Platelet aggregation was measured for 8 minutes using an aggregometer (MCM HEMA TRACER 313M; MC MEDICAL, INC.). With the light transmittance rate of PPP being set as an aggregation value of 100%, the maximum aggregation rate of PRP was determined, and compared with the maximum aggregation rate of control PRP (rat administered only with a solvent) to calculate inhibition rates.

Structure (SMILES) | IC50 [1] [µM] | inhibition at 1 mg/kg [2] [%]
C[C@H](CC(=O)O)Oc1ccc(F)cc1-c1cnc(C(=O)N2CCC(N3C(=O)C(C)(C)Cc4ncc(Cl)cc43)CC2)c(F)c1 [Example 44, (3R)-3-[2-(6-{[4-(7-Chloro-3,3-dimethyl-2-oxo-3,4-dihydro-1,5-naphthyridin-1(2H)-yl)piperidin-1-yl]carbonyl}-5-fluoropyridin-3-yl)-4-fluorophenoxy]butanoic acid] | 3.4 | 55
Cc1cc(-c2ccccc2O[C@H](C)CC(=O)O)ccc1C(=O)N1CCC(N2C(=O)C(C)(C)Oc3ncc(Cl)cc32)CC1 [Example 16, (3R)-3-[(4′-{[4-(7-Chloro-3,3-dimethyl-2-oxo-2,3-dihydro-1H-pyrido[2,3-b][1,4]oxazin-1-yl)piperidin-1-yl]carbonyl}-3′-methylbiphenyl-2-yl)oxy]butanoic acid] | 6.5 | 40
C[C@H](CC(=O)O)Oc1ccccc1-c1ccc(C(=O)N2CCC(N3C(=O)C(C)(C)Cc4ncc(Cl)cc43)CC2)c(F)c1 [Example 5, (3R)-3-[(4′-{[4-(7-Chloro-3,3-dimethyl-2-oxo-3,4-dihydro-1,5-naphthyridin-1(2H)-yl)piperidin-1-yl]carbonyl}-3′-fluorobiphenyl-2-yl)oxy]butanoic acid] | 3.4 | 70
C[C@H](CC(=O)O)Oc1ccccc1-c1ccc(C(=O)N2CCC(N3C(=O)C(C)(C)Oc4ncc(Cl)cc43)CC2)c(F)c1 [Example 6, (3R)-3-[(4′-{[4-(7-Chloro-3,3-dimethyl-2-oxo-2,3-dihydro-1H-pyrido[2,3-b][1,4]oxazin-1-yl)piperidin-1-yl]carbonyl}-3′-fluorobiphenyl-2-yl)oxy]butanoic acid] | 2.4 | 54
C[C@H](CC(=O)O)Oc1ccccc1-c1cc(F)c(C(=O)N2CCC(N3C(=O)C(C)(C)Oc4ncc(Cl)cc43)CC2)c(F)c1 [Example 51, (3R)-3-[(4′-{[4-(7-Chloro-3,3-dimethyl-2-oxo-2,3-dihydro-1H-pyrido[2,3-b][1,4]oxazin-1-yl)piperidin-1-yl]carbonyl}-3′,5′-difluorobiphenyl-2-yl)oxy]butanoic acid] | 7.7 | 75
C[C@@H]1Oc2ncc(Cl)cc2N(C2CCN(C(=O)c3ccc(-c4cc(F)ccc4OC[C@H](C)C(=O)O)cc3F)CC2)C1=O [Example 26, (2S)-3-{[4′-({4-[(3S)-7-Chloro-3-methyl-2-oxo-2,3-dihydro-1H-pyrido[2,3-b][1,4]oxazin-1-yl]piperidin-1-yl}carbonyl)-3′,5-difluorobiphenyl-2-yl]oxy}-2-methylpropanoic acid] | 7.3 | 55
C[C@H](CC(=O)O)Oc1ccccc1-c1ccc(C(=O)N2CCC(N3C(=O)C(C)(C)Oc4ncc(Cl)cc43)CC2)c(N)c1 [Example 50, (3R)-3-[(3′-Amino-4′-{[4-(7-chloro-3,3-dimethyl-2-oxo-2,3-dihydro-1H-pyrido[2,3-b][1,4]oxazin-1-yl)piperidin-1-yl]carbonyl}biphenyl-2-yl)oxy]butanoic acid] | 0.87 | 53
